Measurements: ChEMBL document CHEMBL1149262, “Monoamine transporter binding, locomotor activity, and drug discrimination properties of 3-(4-substituted-phenyl)tropane-2-carboxylic acid methyl ester isomers” (J Med Chem, 2004)
The source made the active and inactive calls. The calls are words filed in the database; no cut-off is given here.

Legend:
[1] = tested on: Mus musculus; test: Locomotor activity in CD1 mouse assessed as stimulation at 1 mg/kg, ip after 1 hr relative to control; assay type: functional; settings: route intraperitoneal
[2] = tested on: Mus musculus; test: Locomotor activity in CD1 mouse assessed as stimulation at 1 mg/kg, ip after 2 hrs relative to control; assay type: functional; settings: route intraperitoneal
[3] = tested on: Mus musculus; test: Locomotor activity in CD1 mouse assessed as stimulation at 1 mg/kg, ip after 3 hrs relative to control; assay type: functional; settings: route intraperitoneal
[4] = tested on: Mus musculus; test: Locomotor activity in CD1 mouse assessed as stimulation at 1 mg/kg, ip after 4 hrs relative to control; assay type: functional; settings: route intraperitoneal
[5] = tested on: Rattus norvegicus; test: Cocaine discrimination in ip dosed CD Albino rat; assay type: functional
[6] = tested on: Rattus norvegicus; test: Drug discrimination effect in CD Albino rat assessed as percent of rat choosing cocaine lever at 3 mg/kg, ip; assay type: functional; settings: route intraperitoneal
[7] = tested on: Rattus norvegicus; test: Drug discrimination effect in CD Albino rat assessed as percent of rat choosing cocaine lever at 5.6 mg/kg, ip; assay type: functional; settings: route intraperitoneal
[8] = tested on: Rattus norvegicus; test: Drug discrimination effect in CD Albino rat assessed as percent of rat choosing cocaine lever at 10 mg/kg, ip; assay type: functional; settings: route intraperitoneal
[9] = tested on: Rattus norvegicus; test: Drug discrimination effect in CD Albino rat assessed as percent of rat choosing cocaine lever at 17 mg/kg, ip; assay type: functional; settings: route intraperitoneal
[10] = tested on: Mus musculus; test: Activity in CD1 mouse assessed as slight or intermittent stereotypy at 10 mg/kg, ip after 4 hrs; assay type: functional, organism-based; set-up: dose 10 mg/kg
[11] = tested on: Mus musculus; test: Activity in CD1 mouse assessed as stereotypy at 100 mg/kg, ip after 4 hrs; assay type: functional, organism-based; set-up: dose 100 mg/kg
[12] = tested on: Mus musculus; test: Activity in CD1 mouse assessed as circling at 100 mg/kg, ip after 4 hrs; assay type: functional, organism-based; set-up: dose 100 mg/kg
[13] = tested on: Mus musculus; test: Activity in CD1 mouse assessed as convulsions at 100 mg/kg, ip after 4 hrs; assay type: functional, organism-based; set-up: dose 100 mg/kg
[14] = tested on: Mus musculus; test: Activity in CD1 mouse assessed as tremor at 100 mg/kg, ip after 4 hrs; assay type: functional, organism-based; set-up: dose 100 mg/kg
[15] = tested on: Mus musculus; test: Activity in CD1 mouse assessed as hypoactivity at 100 mg/kg, ip after 4 hrs; assay type: functional, organism-based; set-up: dose 100 mg/kg
[16] = molecular target: Sodium-dependent noradrenaline transporter (Homo sapiens, UniProt P23975); test: Displacement of [3H]nisoxetine from NET
Sequence of Sodium-dependent noradrenaline transporter (P23975 whole entry): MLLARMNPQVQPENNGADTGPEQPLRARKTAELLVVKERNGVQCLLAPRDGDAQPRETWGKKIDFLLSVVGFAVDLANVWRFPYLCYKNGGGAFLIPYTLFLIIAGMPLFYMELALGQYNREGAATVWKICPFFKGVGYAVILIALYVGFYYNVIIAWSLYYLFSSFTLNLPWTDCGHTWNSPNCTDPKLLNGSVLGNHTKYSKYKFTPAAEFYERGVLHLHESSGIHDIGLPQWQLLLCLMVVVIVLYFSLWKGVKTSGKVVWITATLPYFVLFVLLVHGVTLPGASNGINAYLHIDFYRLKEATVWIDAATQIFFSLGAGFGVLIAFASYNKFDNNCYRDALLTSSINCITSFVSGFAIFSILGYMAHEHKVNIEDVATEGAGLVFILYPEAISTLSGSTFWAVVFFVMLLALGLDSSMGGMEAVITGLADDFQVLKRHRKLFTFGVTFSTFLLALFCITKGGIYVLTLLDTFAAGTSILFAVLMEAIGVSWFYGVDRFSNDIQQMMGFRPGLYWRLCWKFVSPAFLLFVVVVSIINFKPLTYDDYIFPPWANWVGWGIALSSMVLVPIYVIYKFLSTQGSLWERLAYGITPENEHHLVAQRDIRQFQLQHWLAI

[17] = tested on: Mus musculus; test: Locomotor activity in ip dosed CD1 mouse in peak hour; assay type: functional
[18] = tested on: Mus musculus; test: Locomotor activity in CD1 mouse assessed as stimulation at 3 mg/kg, ip after 1 hr relative to control; assay type: functional; settings: route intraperitoneal
[19] = tested on: Mus musculus; test: Locomotor activity in CD1 mouse assessed as stimulation at 3 mg/kg, ip after 2 hrs relative to control; assay type: functional; settings: route intraperitoneal
[20] = tested on: Mus musculus; test: Locomotor activity in CD1 mouse assessed as stimulation at 3 mg/kg, ip after 3 hrs relative to control; assay type: functional; settings: route intraperitoneal
[21] = tested on: Mus musculus; test: Locomotor activity in CD1 mouse assessed as stimulation at 3 mg/kg, ip after 4 hrs relative to control; assay type: functional; settings: route intraperitoneal
[22] = tested on: Mus musculus; test: Locomotor activity in CD1 mouse assessed as stimulation at 10 mg/kg, ip after 1 hr relative to control; assay type: functional; settings: route intraperitoneal
[23] = tested on: Mus musculus; test: Locomotor activity in CD1 mouse assessed as stimulation at 10 mg/kg, ip after 2 hrs relative to control; assay type: functional; settings: route intraperitoneal
[24] = tested on: Mus musculus; test: Locomotor activity in CD1 mouse assessed as stimulation at 10 mg/kg, ip after 3 hrs relative to control; assay type: functional; settings: route intraperitoneal
[25] = tested on: Mus musculus; test: Locomotor activity in CD1 mouse assessed as stimulation at 10 mg/kg, ip after 4 hrs relative to control; assay type: functional; settings: route intraperitoneal
[26] = tested on: Mus musculus; test: Locomotor activity in CD1 mouse assessed as stimulation at 30 mg/kg, ip after 1 hr relative to control; assay type: functional; settings: route intraperitoneal
[27] = tested on: Mus musculus; test: Locomotor activity in CD1 mouse assessed as stimulation at 30 mg/kg, ip after 2 hrs relative to control; assay type: functional; settings: route intraperitoneal
[28] = tested on: Mus musculus; test: Locomotor activity in CD1 mouse assessed as stimulation at 30 mg/kg, ip after 3 hrs relative to control; assay type: functional; settings: route intraperitoneal
[29] = tested on: Mus musculus; test: Locomotor activity in CD1 mouse assessed as stimulation at 30 mg/kg, ip after 4 hrs relative to control; assay type: functional; settings: route intraperitoneal
[30] = molecular target: Sodium-dependent serotonin transporter (Homo sapiens, UniProt P31645)
Sequence of Sodium-dependent serotonin transporter (P31645 whole entry): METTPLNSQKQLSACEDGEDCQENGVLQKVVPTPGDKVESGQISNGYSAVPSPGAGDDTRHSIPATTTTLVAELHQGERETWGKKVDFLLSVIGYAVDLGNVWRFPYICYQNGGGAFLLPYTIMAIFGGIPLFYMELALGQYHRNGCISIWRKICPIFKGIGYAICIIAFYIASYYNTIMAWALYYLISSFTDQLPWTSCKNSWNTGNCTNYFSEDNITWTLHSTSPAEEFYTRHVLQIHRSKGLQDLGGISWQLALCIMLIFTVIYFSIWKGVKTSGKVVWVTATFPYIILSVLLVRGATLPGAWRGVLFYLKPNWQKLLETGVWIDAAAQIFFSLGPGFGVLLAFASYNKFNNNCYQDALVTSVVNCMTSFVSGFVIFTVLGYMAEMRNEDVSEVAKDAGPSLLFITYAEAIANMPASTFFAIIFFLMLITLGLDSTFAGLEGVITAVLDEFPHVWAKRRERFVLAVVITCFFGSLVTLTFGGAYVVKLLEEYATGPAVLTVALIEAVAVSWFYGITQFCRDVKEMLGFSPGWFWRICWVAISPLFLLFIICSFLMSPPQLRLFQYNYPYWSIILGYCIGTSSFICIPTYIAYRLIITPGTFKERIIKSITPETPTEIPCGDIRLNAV
Description: Displacement of [3H]paroxetine from 5HTT

[31] = tested on: Mus musculus; test: Locomotor activity in CD1 mouse assessed as stimulation at 0.3 mg/kg, ip after 1 hr relative to control; assay type: functional; settings: route intraperitoneal
[32] = tested on: Mus musculus; test: Locomotor activity in CD1 mouse assessed as stimulation at 0.3 mg/kg, ip after 2 hrs relative to control; assay type: functional; settings: route intraperitoneal
[33] = tested on: Mus musculus; test: Locomotor activity in CD1 mouse assessed as stimulation at 0.3 mg/kg, ip after 3 hrs relative to control; assay type: functional; settings: route intraperitoneal
[34] = tested on: Mus musculus; test: Locomotor activity in CD1 mouse assessed as stimulation at 0.3 mg/kg, ip after 4 hrs relative to control; assay type: functional; settings: route intraperitoneal
[35] = tested on: Mus musculus; test: Locomotor activity in CD1 mouse assessed as stimulation at 0.1 mg/kg, ip after 1 hr relative to control; assay type: functional; settings: route intraperitoneal
[36] = tested on: Mus musculus; test: Locomotor activity in CD1 mouse assessed as stimulation at 0.1 mg/kg, ip after 2 hrs relative to control; assay type: functional; settings: route intraperitoneal
[37] = tested on: Mus musculus; test: Locomotor activity in CD1 mouse assessed as stimulation at 0.1 mg/kg, ip after 3 hrs relative to control; assay type: functional; settings: route intraperitoneal
[38] = tested on: Mus musculus; test: Locomotor activity in CD1 mouse assessed as stimulation at 0.1 mg/kg, ip after 4 hrs relative to control; assay type: functional; settings: route intraperitoneal
[39] = tested on: Rattus norvegicus; test: Drug discrimination effect in CD Albino rat assessed as percent of rat choosing cocaine lever at 0.17 mg/kg, ip; assay type: functional; settings: route intraperitoneal
[40] = tested on: Rattus norvegicus; test: Drug discrimination effect in CD Albino rat assessed as percent of rat choosing cocaine lever at 0.3 mg/kg, ip; assay type: functional; settings: route intraperitoneal
[41] = tested on: Mus musculus; test: Activity in CD1 mouse assessed as hyperactivity at 1 mg/kg, ip after 4 hrs; assay type: functional, organism-based; set-up: dose 1 mg/kg
[42] = tested on: Mus musculus; test: Activity in CD1 mouse assessed as stereotypy at 1 mg/kg, ip after 4 hrs; assay type: functional, organism-based; set-up: dose 1 mg/kg
[43] = tested on: Mus musculus; test: Activity in CD1 mouse assessed as circling at 1 mg/kg, ip after 4 hrs; assay type: functional, organism-based; set-up: dose 1 mg/kg
[44] = tested on: Mus musculus; test: Activity in CD1 mouse assessed as stereotypy at 10 mg/kg, ip after 4 hrs; assay type: functional, organism-based; set-up: dose 10 mg/kg
[45] = tested on: Mus musculus; test: Activity in CD1 mouse assessed as straub tail at 100 mg/kg, ip after 4 hrs; assay type: functional, organism-based; set-up: dose 100 mg/kg
[46] = tested on: Mus musculus; test: Activity in CD1 mouse assessed as hind limb splay at 100 mg/kg, ip after 4 hrs; assay type: functional, organism-based; set-up: dose 100 mg/kg; settings: Hindlimb
[47] = molecular target: Sodium-dependent dopamine transporter (Homo sapiens, UniProt Q01959); test: Displacement of [3H]WIN-35428 from DAT
Sequence of Sodium-dependent dopamine transporter (Q01959 whole entry): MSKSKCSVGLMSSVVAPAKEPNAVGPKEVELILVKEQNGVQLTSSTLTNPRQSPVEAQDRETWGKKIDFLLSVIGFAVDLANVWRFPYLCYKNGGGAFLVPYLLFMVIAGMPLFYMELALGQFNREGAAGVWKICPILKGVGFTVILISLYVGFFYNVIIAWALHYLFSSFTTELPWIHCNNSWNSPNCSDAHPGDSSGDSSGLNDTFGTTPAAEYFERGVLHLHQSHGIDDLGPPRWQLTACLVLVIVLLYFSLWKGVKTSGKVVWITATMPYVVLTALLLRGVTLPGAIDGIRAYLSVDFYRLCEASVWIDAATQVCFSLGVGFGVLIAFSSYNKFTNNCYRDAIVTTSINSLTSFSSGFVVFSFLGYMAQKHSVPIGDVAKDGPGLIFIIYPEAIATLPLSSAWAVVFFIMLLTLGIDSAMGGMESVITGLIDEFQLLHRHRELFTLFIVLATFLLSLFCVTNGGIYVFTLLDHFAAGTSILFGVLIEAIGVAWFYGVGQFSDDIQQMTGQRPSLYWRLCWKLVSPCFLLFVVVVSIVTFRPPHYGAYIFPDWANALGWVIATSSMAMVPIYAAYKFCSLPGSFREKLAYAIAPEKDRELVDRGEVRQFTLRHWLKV

[48] = tested on: Rattus norvegicus; test: Drug discrimination effect in CD Albino rat assessed as percent of rat choosing cocaine lever at 0.1 mg/kg, ip; assay type: functional; settings: route intraperitoneal

## COC(=O)[C@H]1C2CCC(C[C@@H]1c1ccc(F)cc1)N2C (stereo not given in full)
[1]
  Activity: -10%
[2]
  Activity: 5%
[3]
  Activity: 52%
[4]
  Activity: 28%
[5]
  ED50: 8.01 mg/kg
[6]
  Activity: 0%
[7]
  Activity: 33%
[8]
  Activity: 57%
[9]
  Activity: 100%
[10]
  Activity: Active
[11]
  Activity: Active
[12]
  Activity: Active
[13]
  Activity: Active
[14]
  Activity: Active
[15]
  Activity: Active
[16]
  IC50: 7.2 µM
  Ki: 4.34 µM
[17]
  ED50: 2.4 mg/kg
[18]
  Activity: 15%
[19]
  Activity: 58%
[20]
  Activity: 120%
[21]
  Activity: 19%
[22]
  Activity: 58%
[23]
  Activity: 107%
[24]
  Activity: 260%
[25]
  Activity: 196%
[26]
  Activity: 24%
[27]
  Activity: 207%
[28]
  Activity: 298%
[29]
  Activity: 127%
[30]
  IC50: > 10 µM

## COC(=O)C1C2CC[C@H](C[C@@H]1c1ccc(Cl)cc1)N2C (stereo not given in full)
[31]
  Activity: 462%
[32]
  Activity: 1426%
[33]
  Activity: 1201%
[34]
  Activity: 235%
[1]
  Activity: 645%
[2]
  Activity: 958%
[3]
  Activity: 1892%
[4]
  Activity: 1507%
[35]
  Activity: -26%
[36]
  Activity: 53%
[37]
  Activity: 91%
[38]
  Activity: 17%
[5]
  ED50: 0.13 mg/kg
[39]
  Activity: 44%
[40]
  Activity: 100%
[41]
  Activity: Active
[42]
  Activity: Active
[43]
  Activity: Active
[44]
  Activity: Active
[11]
  Activity: Active
[45]
  Activity: Active
[46]
  Activity: Active
[47]
  IC50: 0.0011 µM
[17]
  ED50: 0.2 mg/kg
[18]
  Activity: 416%
[19]
  Activity: -36%
[20]
  Activity: 589%
[21]
  Activity: 1643%
[48]
  Activity: 50%
